According to patent US7875595B2, “2-polycyclic propynyl adenosine analogs having A2A agonist activity” (University of Virginia Patent Foundation, priority 2004, dated 2011):
Where two headings read alike, the source gives them in different places.

What was measured:
[1] = biological target: T1, recombinant human A2A receptors (Homo sapiens, UniProt P29274); experiment: Radioligand competition binding to recombinant human A2A receptors in Sf9 cell membranes (125I-APE or 125I-ZM241385); conditions: read-out: A2A (nM) binding affinity
T1 construct: expressed in transfected cells; host or cells: Sf9 insect cells, viral infection, membranes
T1 sequence (P29274 whole entry): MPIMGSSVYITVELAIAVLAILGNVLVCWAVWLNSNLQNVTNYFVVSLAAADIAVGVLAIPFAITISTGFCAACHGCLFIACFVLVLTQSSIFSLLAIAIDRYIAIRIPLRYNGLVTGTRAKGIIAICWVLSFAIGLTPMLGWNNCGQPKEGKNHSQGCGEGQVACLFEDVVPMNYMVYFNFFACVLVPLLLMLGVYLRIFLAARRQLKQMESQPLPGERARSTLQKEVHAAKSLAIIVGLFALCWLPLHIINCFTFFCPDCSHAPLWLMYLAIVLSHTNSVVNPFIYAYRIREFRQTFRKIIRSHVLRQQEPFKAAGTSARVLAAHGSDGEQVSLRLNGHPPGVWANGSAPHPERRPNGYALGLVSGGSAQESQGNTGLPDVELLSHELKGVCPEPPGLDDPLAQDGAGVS
Method: (§1) Sf9 cells were cultured in Grace's medium supplemented with 10% fetal bovine serum, 2.5 μg/ml amphotericin B and 50 μg/ml gentamycin in an atmosphere of 50% N2/50% O2. Viral infection was performed at a density of 2.5×10^6 cells/mL with a multiplicity of infection of two for each virus used. Infected cells were harvested 3 days post-infection and washed twice in insect PBS (PBS pH 6.3). Cells were then resuspended in lysis buffer (20 mM HEPES pH 7.5, 150 mM NaCl, 3 mM MgCl2, 1 mM β-mercaptoethanol (BME), 5 μg/mL leupeptin, 5 μg/mL pepstatin A, 1 μg/mL aprotinin, and 0.1 mM PMSF) and snap frozen for storage at −80° C. Cells were thawed on ice, brought to 30 mL total volume in lysis buffer, and burst by N2 cavitation (600 psi for 20 minutes). A low-speed centrifugation was performed to remove any unlysed cells (1000×g for 10 minutes), followed by a high-speed centrifugation (17,000×g for 30 minutes). The pellet from the final centrifugation was homogenized in buffer containing 20 mM HEPES pH 8, 100 mM NaCl, 1% glycerol, 2 μg/mL leupeptin, 2 μg/mL pepstatin A, 2 μg/mL Aprotinin, 0.1 mM PMSF, and 10 μM GDP using a small glass homogenizer followed by passage through a 26 gauge needle. Membranes were aliquoted, snap frozen in liquid N2, and stored at −80° C. Membranes from cells stably expressing the human A1 AR(CHO K1 cells) or A3 AR (HEK 293 cells) were prepared as described (Robeva et al., 1996).
(§2) Radioligand binding to recombinant human A2A receptors in Sf9 cell membranes was performed using either the radio labeled agonist, ^125I-APE (Luthin et al., 1995) or the radio labeled antagonist, ^125I-ZM241385 (^125I-ZM). To detect the high affinity, GTPγS-sensitive state of A1 and A3AR, we used the agonist, ^125I-ABA (Linden et al., 1985; Linden et al., 1993). Binding experiments were performed in triplicate with 5 μg (A2A) or 25 μg (A1 and A3) membrane protein in a total volume of 0.1 mL HE buffer (20 mM HEPES and 1 mM EDTA) with 1 U/mL adenosine deaminase and 5 mM MgCl2 with or without 50 μM GTPγS. […] Nonspecific binding was measured in the presence of 50 μM NECA. […]

human A1 AR = biological target: T2, human A1 AR (Homo sapiens, UniProt P30542); experiment: Radioligand competition binding to human A1 adenosine receptor (125I-ABA); conditions: membranes of CHO K1 cells expressing human A1 AR, read-out: A1 (nM) binding affinity
T2 construct: expressed in transfected cells
T2 sequence (P30542 1-326): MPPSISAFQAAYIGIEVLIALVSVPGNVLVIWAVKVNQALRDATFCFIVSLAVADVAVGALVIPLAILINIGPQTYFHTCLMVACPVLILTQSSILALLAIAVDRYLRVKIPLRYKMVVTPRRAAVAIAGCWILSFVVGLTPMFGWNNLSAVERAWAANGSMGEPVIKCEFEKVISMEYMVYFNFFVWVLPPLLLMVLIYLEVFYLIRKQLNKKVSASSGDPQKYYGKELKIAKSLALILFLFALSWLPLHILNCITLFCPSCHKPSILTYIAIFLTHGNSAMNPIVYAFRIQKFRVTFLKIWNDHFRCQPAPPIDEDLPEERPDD
Method: as §1, §2

human neutrophils = experiment: Human neutrophil oxidative activity, luminol-enhanced chemiluminescence (fMLP stimulated); format: cell-based; conditions: human neutrophil experiment as described in Example 6 without Rolipram, peak chemiluminescence, read-out: Functional
Method: Chemiluminescence Methods: Luminol enhanced chemiluminescence, a measure of neutrophil oxidative activity, is dependent upon both superoxide production and mobilization of the granule enzyme myeloperoxidase. The light is emitted from unstable high-energy oxygen species such as hypochlorous acid and singlet oxygen generated by activated neutrophils.
Following incubation 100 µL aliquots of the PMN were transferred to wells (White walled clear bottom 96 well tissue culture plates Costar #3670; 2 wells/condition) containing […] and luminol (final concentration 100 µM) with or without adenosine agonist (final agonist concentrations 0.01-1000 nM). The plate was incubated 5 min (37° C.) and then fMLP ([…] in HA; final concentration […]) was added to all wells.
Peak chemiluminescence was determined with a Victor 1420 Multilabel Counter in the chemiluminescence mode using the Wallace Workstation software. Data are presented as peak chemiluminescence as percent of activity in the absence of an adenosine agonist. The EC50 was determined using PRISM software. All compounds were tested with PMNs from three separate donors.
Purified neutrophils (−98% neutrophils and >95% viable by trypan blue exclusion) containing <1 platelet per 5 neutrophils and <50 pg/ml endotoxin (limulus amebocyte lysate assay) were obtained from normal heparinized (10 U/ml) venous blood by a one step Ficoll-hypaque separation procedure (A. Ferrante et al., J. Immunol. Meth., 36, 109 (1980)).
Luminol-enhanced chemiluminescence, a measure of neutrophil oxidative activity, is dependent upon both superoxide production and mobilization of the lysosomal granule enzyme myeloperoxidase. The light is emitted from unstable high-energy oxygen species generated by activated neutrophils. […] Then luminol (1×10^−4 M) enhanced f-met-leu-phe (1 mcM) stimulated chemiluminescence was read with a Chronolog® Photometer (Crono-log Corp., Havertown, Pa.) at 37° C. for 2-4 minutes. […]

A3 AR = biological target: T3, A3 AR (Homo sapiens, UniProt P0DMS8); experiment: Radioligand competition binding to human A3 adenosine receptor (125I-ABA); conditions: membranes of HEK 293 cells expressing A3 AR, read-out: A3 (nM) binding affinity
T3 construct: expressed in transfected cells
T3 sequence (P0DMS8 1-318): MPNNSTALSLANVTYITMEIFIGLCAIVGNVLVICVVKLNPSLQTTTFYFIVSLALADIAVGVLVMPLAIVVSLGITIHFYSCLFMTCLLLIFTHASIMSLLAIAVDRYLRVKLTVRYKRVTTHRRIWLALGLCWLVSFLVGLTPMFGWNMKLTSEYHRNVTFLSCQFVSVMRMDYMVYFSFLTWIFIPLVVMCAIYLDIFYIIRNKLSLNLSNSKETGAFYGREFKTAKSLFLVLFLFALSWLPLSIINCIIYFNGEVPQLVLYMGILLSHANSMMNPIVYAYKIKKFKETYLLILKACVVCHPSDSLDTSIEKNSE
Method: as §1, §2

Ki [1] [nM]	Ki (human A1 AR) [nM]	EC50 (human neutrophils; Homo sapiens, Neutrophil) [nM]	Ki (A3 AR) [nM]	EC50 (human neutrophils) [nM]	SMILES
0.6	10	0.9	7	–	Nc1nc(C#CC2(O)CC3CCC2C3)nc2c1ncn2[C@@H]1O[C@H](C(=O)NC2CC2)C(O)C1O (stereo in doubt) [Example 1, 5-[6-Amino-2-(2-hydroxy-bicyclo[2.2.1]hept-2-ylethynyl)-purin-9-yl]-3,4-dihydroxy-tetrahydro-furan-2-carboxylic acid cyclopropylamide]
2	18	–	12	1.5	Nc1nc(C#CC2(O)CC3CCC2C3)nc2c1ncn2[C@@H]1O[C@H](C(=O)NC2CC2)C(O)C1O (stereo in doubt) [Example 2, 5-[6-Amino-2-(2-hydroxy-bicyclo[2.2.1]hept-2-ylethynyl)-purin-9-yl]-3,4-dihydroxy-tetrahydro-furan-2-carboxylic acid cyclopropylamide]
1	67.2	2.4	45.4	–	Nc1nc(C#CC2(O)C3CC4CC(C3)CC2C4)nc2c1ncn2[C@@H]1O[C@H](C(=O)NC2CC2)C(O)C1O (stereo in doubt) [Example 3, 5-[6-Amino-2-(2-hydroxy-adamantan-2-ylethynyl)-purin-9-yl]-3,4-dihydroxy-tetrahydro-furan-2-carboxylic acid cyclopropylamide]
